Columns and labels:
dogs = assay: Action profile (blood glucose) of insulin compositions in dogs; format: in vivo
Procedure: D) Action Profile of an Asp^A21 -Human Insulin-Arg^B31 -Arg^B32-OH Composition in dogs by comparison with human insulin-Arg^B31 -Arg^B32 -OH and basal H insulin Hoechst^(R) =an NPH (neutral protamine Hagedorn) composition containing about 10 μg of Zn^2+.

[1] = pH 4
Procedure: 18 mg of glycerol, 10 mg of benzyl alcohol, 80 μg of Zn^2+, pH 4.0.

[2] = measured by isoelectric focusing; cited from earlier work

Row | Substance | Blood glucose as a % of the initial level (dogs; 1 h) | Blood glucose as a % of the initial level (dogs; 2 h) | Blood glucose as a % of the initial level (dogs; 3 h) | Blood glucose as a % of the initial level (dogs; 5 h) | Blood glucose as a % of the initial level (dogs; 7 h) | Action profile (basal profile) (dogs; compared with human insulin-Arg^B31 -Arg^B32 -OH) | Stability [1] | Isoelectric point [2]
1 | human insulin-Arg^B31 -Arg^B32 -OH [Human insulin Arg^B31 --Arg^B32 --OH, reference compound] | 77% | 52% | 64% | 85% | 98% |  |  | 
2 | Asp^A21 -Human Insulin-Arg^B31 -Arg^B32 -OH | 99% | 62% | 51% | 75% | 98% | same advantageous basal profile as human insulin-Arg^B31 -Arg^B32 -OH | stable for a long time under the chosen conditions | 
3 | proinsulin: proinsulin |  |  |  |  |  |  |  | 5.4 pH

Reference: patent US5656722A, “A^21 -, B^30 - modified insulin derivatives having an altered action profile” (Hoechst Aktiengesellschaft, priority 1988, dated 1997)
